According to patent publication US7229986B2, “Melanin-concentrating hormone antagonist” (Takeda Pharmaceutical Company Ltd., priority 2000, dated 2007):
Structures can show the parent of a compound that is named as a salt.

Biological target: SLC-1 (UniProt Q99705)
Experiment: Determination of antagonist activity using GTPγS binding assay
Type: biochemical, human, rat
Settings: inhibition of MCH-stimulated [35S]-GTPγS binding, SLC-1 expressing CHO cell membrane fractions, 25° C., 1 hour
Procedure: Membrane fraction was prepared by the following method, using the human SLC-1 expressing CHO cell clone 57 obtained in Reference Example 1-10, and the rat SLC-1 expressing CHO cell clone 44 obtained in Reference Example 1-4.
The human and rat SLC-1 expressing CHO cells (1×10^8) were scraped in buffer saline phosphate (pH 7.4) to which 5 mM EDTA (ethylenediaminetetraacetic acid) had been added, and centrifuged. 10 ml of homogenized buffer (10 mM NaHCO3, 5 mM EDTA, pH 7.5) was added to the cell pellets, and they were homogenized using a Polytron homogenizer. […]
After this reaction mixture was allowed to react at 25° C. for 1 hour under stirring, it was filtered under vacuum using a glass filter (GF-C), then the filter was washed 3 times with 300 μl of washing solution (50 mM Tris-HCl buffer solution pH 7.5). 50 ml of liquid scintillator was added to the glass filter, and residual radioactivity was determined using a liquid scintillation counter.
The IC50 value of the compound was calculated from the binding inhibition rate (%), based on the definition that the binding inhibition rate (%)=(radioactivity when compound and MCH were added−radioactivity when DMSO solution was added)/(radioactivity when MCH was added−radioactivity when DMSO solution was added)×100.

IC50 [µM] | SMILES
0.3 | CN(C)CCCc1ccc2c(c1)CCCN2C(=O)c1ccc(-c2ccccc2)cc1 [Example 1, 3-[1-([1,1′-Biphenyl]-4-ylcarbonyl)-1,2,3,4-tetrahydro-6-quinolinyl]-N,N-dimethyl-1-propanamine]
0.02 | CN(C)C/C=C/c1ccc2c(c1)CCCN2C(=O)c1ccc(-c2ccc(Cl)cc2)cc1 [Example 5, (E)-3-[1-[(4′-Chloro[1,1-biphenyl]-4-yl)carbonyl]-1,2,3,4-tetrahydro-6-quinolinyl]-N,N-dimethyl-2-propen-1-amine]

Tested on: not given
Experiment: not given
Settings: not given

SMILES | melting point
CCCN(CCC)CCc1ccc2c(c1)N(Cc1cccc3ccccc13)CCO2.Cl | 177 to 178 °C
O=C(CCCN1CCC(c2ccc(Cl)cc2)CC1)c1ccc2c(c1)CCNCC2 (as salt: HCl) [Example 34, 4-[4-(4-Chlorophenyl)-1-piperidinyl]-1(2,3,4,5-tetrahydro-1H-3-benzazepin-7-yl)-1-butanone] | 243 to 247 °C (dec.)
CN(C)C/C=C/c1ccc2c(c1)N(C(=O)c1ccc(-c3ccccc3)cc1)CCCC2 (as salt: hydrochloride) [Example 2, (E)-3-[1-([1,1′-Biphenyl]-4-ylcarbonyl)-2,3,4,5-tetrahydro-1H-1-benzazepin-8-yl]-N,N-dimethyl-2-propen-1-amine hydrochloride] | 112 to 113 °C
CN(C)CCCc1ccc2c(c1)N(C(=O)c1ccc(-c3ccccc3)cc1)CCCC2 (as salt: hydrochloride) [Example 3, 3-[1-([1,1′-Biphenyl]-4-ylcarbonyl)-2,3,4,5-tetrahydro-1H-1-benzazepin-8-yl]-N,N-dimethyl-1-propanamine hydrochloride] | 84 to 86 °C
CN(C)CCCc1ccc2c(c1)CCCN2C(=O)c1ccc(-c2ccccc2)cc1 [Example 1, 3-[1-([1,1′-Biphenyl]-4-ylcarbonyl)-1,2,3,4-tetrahydro-6-quinolinyl]-N,N-dimethyl-1-propanamine] | 100 to 101 °C
CN(C)C/C=C/c1ccc2c(c1)CCCN2C(=O)c1ccc(-c2ccc(Cl)cc2)cc1 [Example 5, (E)-3-[1-[(4′-Chloro[1,1-biphenyl]-4-yl)carbonyl]-1,2,3,4-tetrahydro-6-quinolinyl]-N,N-dimethyl-2-propen-1-amine] | 162 to 164 °C
O=C(c1ccc(-c2ccc(Cl)cc2)cc1)N1CCCc2cc(/C=C/CN3CCCCC3)ccc21 [Example 6, 1-[(4′-Chloro[1,1-biphenyl]-4-yl)carbonyl]-6-[(E)-3-piperidino-1-propenyl]-1,2,3,4-tetrahydroquinoline] | 141 to 143 °C
CN(C)C/C=C/c1ccc2c(c1)CCN2C(=O)c1ccc(-c2ccccc2)cc1 [Example 7, (E)-3-[1-[([1,1′-Biphenyl]-4-yl)carbonyl]-2,3-dihydro-1H-indol-5-yl]-N,N-dimethyl-2-propen-1-amine] | 174 to 176 °C
COc1ccc(COc2ccc(C(=O)N3CCc4cc(/C=C/CN(C)C)ccc43)cc2)cc1 [Example 9, (E)-3-[1-[4-[(4-Methoxybenzyl)oxy]benzoyl]-2,3-dihydro-1H-indol-5-yl]-N,N-dimethyl-2-propen-1-amine] | 164 to 166 °C
O=C(CCC(=O)N1CCC(c2ccc(Cl)cc2)CC1)c1ccc2c(c1)CCN(C(=O)C(F)(F)F)CC2 [Example 14, 4-[4-(4-Chlorophenyl)-1-piperidinyl]-4-oxo-1-[3-(trifluoroacetyl)-2,3,4,5-tetrahydro-1H-3-benzazepin-7-yl]-1-butanone] | 131 to 132 °C
O=C(CCC(=O)N1CCC(c2ccc(Cl)cc2)CC1)c1ccc2c(c1)CCNCC2 [Example 15, 4-[4-(4-Chlorophenyl)-1-piperidinyl]-4-oxo-1-(2,3,4,5-tetrahydro-1H-3-benzazepin-7-yl)-1-butanone] | 148 to 149 °C
CN1CCc2ccc(C(=O)CCC(=O)N3CCC(c4ccc(Cl)cc4)CC3)cc2CC1 [Example 16, 4-[4-(4-Chlorophenyl)-1-piperidinyl]-4-oxo-1-(3-methyl-2,3,4,5-tetrahydro-1H-3-benzazepin-7-yl)-1-butanone] | 143 to 145 °C
O=C(CCC(=O)N1CCC(c2ccccc2)CC1)c1ccc2c(c1)CCN(C(=O)C(F)(F)F)CC2 [Example 31, 4-Oxo-4-(phenyl-1-piperidinyl)-1-[3-(trifluoroacetyl)-2,3,4,5-tetrahydro-1H-3-benzazepin-7-yl]-1-butanone] | 132 to 133 °C
O=C(CCC(=O)N1CCC(c2ccccc2)CC1)c1ccc2c(c1)CCNCC2 [Example 32, 4-Oxo-4-(phenyl-1-piperidinyl)-1-(2,3,4,5-tetrahydro-1H-3-benzazepin-7-yl)-1-butanone] | 114 °C

The remaining lines, values ahead:

melting point | SMILES
248 to 252 °C (dec.) | CN1CCc2ccc(C(=O)CCCN3CCC(c4ccc(Cl)cc4)CC3)cc2CC1 (as salt: HCl) (hydrate or solvate) [Example 35, 4-[4-(4-Chlorophenyl)-1-piperidinyl]-1-(3-methyl-2,3,4,5-tetrahydro-1H-3-benzazepin-7-yl)-1-butanone]
130 to 133 °C | CCCN(CCC)CCc1ccc2c(c1)N(S(=O)(=O)c1ccc(Cl)cc1)CCO2 (as salt: succinate) [Example 137, 4-(4-Chlorobenzenesulfonyl)-3,4-dihydro-6-[2-(N,N-dipropylamino)ethyl]-2H-1,4-benzoxazine succinate]
121 to 122 °C | CCCN(CCC)C(=O)Cc1ccc2c(c1)NC(=O)CO2 [Example 133, N,N-Dipropyl-(3,4-dihydro-2H-1,4-benzoxazine-3-oxo-6-yl) acetamide]
123 to 125 °C | O=C(CCC(=O)N1CCC(c2ccc(Cl)cc2)CC1)c1ccc2c(c1)CCN(CC1CCCO1)CC2 (stereo not shown) [Example 194, 4-[4-(4-Chlorophenyl)-1-piperidinyl]-4-oxo-1-[3-(tetrahydro-2-furanylmethyl)-2,3,4,5-tetrahydro-1H-3-benzazepin-7-yl]-1-butanone]
128 to 130 °C | O=C(CCC(=O)N1CCC(c2ccc(Cl)cc2)CC1)c1ccc2c(c1)CCN(C1CCCCC1)CC2 [Example 195, 4-[4-(4-Chlorophenyl)-1-piperidinyl]-1-(3-cyclohexyl-2,3,4,5-tetrahydro-1H-3-benzazepin-7-yl)-4-oxo-1-butanone]
112 to 113 °C | O=C(CCCC(=O)N1CCC(c2ccc(Cl)cc2)CC1)c1ccc2c(c1)CCNCC2 [Example 205, 5-[4-(4-Chlorophenyl)-1-piperidinyl]-5-oxo-1-(2,3,4,5-tetrahydro-1H-3-benzazepin-7-yl)-1-pentanone]
